Earlier results on three compounds are cited in US20150291756A1, “PROCESS FOR THE PRODUCTION OF RIGID FOAMED OBJECTS MADE OF POLYMER MATERIALS” (priority 2013, published 2015).

Where two headings read alike, the source gives them in different places.

For series [1] the following is noted: toxicological studies.
Series [2] deals with rats. Particulars: 4-hour exposure, decomposition residues of the diazocompound (TSMN for AIBN).
The conditions of series [3]: substance as such.
Series [4] has as its system human. Particulars: human inhalative exposure; BASF Risk Assessment study.
The conditions of series [5]: recommended by OSHA, ACGIH, NIOSH.

Turning to `NC(=O)N=NC(N)=O` [ADC, Azodicarbonamide], the “carcinogenic and genotoxic activity” value in series [1] is “carcinogenic and genotoxic activity”.

`CCC(C)(C#N)N=NC(C)(C#N)CC` (stereo not shown) [AMBN, 2,2′-Azobis(2-methylbutanenitrile)]: the “Approximate Lethal Concentration Values by inhalation of its residues (ALC)” value in series [2] is reported as 8.7 mg/L. In series [3], the “EU Hazard Classification” value is recorded as “Harmful”.

As to `CC(C)(C#N)C(C)(C)C#N` [TMSN, 2,2,3,3-tetramethylbutanedinitrile], in series [4], the “tentative Derived No Effect Level (DNEL)” value is listed as 25 μg/m^3. The “occupational permissible exposure limit” value in series [5] was 0.5 ppm; in series [5] (equivalent of the ppm value), 3 mg/m^3. Moreover, the “Approximate Lethal Concentration Values by inhalation of its residues (ALC)” value in series [2] is given as 0.1 mg/L.
